According to US6750239B2, “Pyrazole-derived kinase inhibitors and uses thereof” (Vertex Pharmaceuticals Incorporated, priority 2001, dated 2004):
Like-named read-outs stand apart in the source and are kept apart here.

Target: activated ERK2 (Homo sapiens, UniProt P28482)
Experiment: ERK2 inhibition spectrophotometric coupled-enzyme assay
Type: biochemical
Description: Compounds are assayed for the inhibition of ERK2 by a spectrophotometric coupled-enzyme assay (Fox et al (1998) Protein Sci 7, 2249). In this assay, a fixed concentration of activated ERK2 (10 nM) is incubated with various concentrations of the compound in DMSO (2.5%) for 10 min. at 30° C. in 0.1 M HEPES buffer, pH 7.5, containing 10 mM MgCl2, 2.5 mM phosphoenolpyruvate, 200 μM NADH, 150 μg/mL pyruvate kinase, 50 μg/mL lactate dehydrogenase, and 200 μM erktide peptide. The reaction is initiated by the addition of 65 μM ATP. The rate of decrease of absorbance at 340 nm is monitored, which indicates the extent of uninhibited enzyme present in the assay. The IC50 is evaluated from the rate data as a function of inhibitor concentration.
The compound numbers correspond to the compound numbers in Tables 1-3.

[1] = activated ERK2 10 nM, 65 μM ATP, 30° C., pH 7.5, read-out: ERK2 Inhibitory Activity (Ki class)

Chain of activated ERK2 (P28482 whole entry): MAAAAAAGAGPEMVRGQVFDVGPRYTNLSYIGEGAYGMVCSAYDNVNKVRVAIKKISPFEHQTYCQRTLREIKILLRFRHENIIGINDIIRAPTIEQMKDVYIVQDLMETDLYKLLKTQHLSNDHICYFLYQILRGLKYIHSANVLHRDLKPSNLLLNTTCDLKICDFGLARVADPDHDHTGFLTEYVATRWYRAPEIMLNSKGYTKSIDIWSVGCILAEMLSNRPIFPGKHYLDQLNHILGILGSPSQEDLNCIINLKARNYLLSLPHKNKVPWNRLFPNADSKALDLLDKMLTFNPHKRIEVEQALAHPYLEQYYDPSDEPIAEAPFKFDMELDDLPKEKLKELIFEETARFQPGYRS

Compound | Ki [1] | Ki
CNC(=O)C(C)N(C)Cc1ccc(-c2cn[nH]c2-c2c[nH]c(C(=O)N[C@H](CO)c3ccc(F)c(Cl)c3)c2)cc1C(F)(F)F (stereo partly drawn) [II-59] | < 1 µM | 
C[C@@H](O)[C@H](N)C(=O)NCc1ccc(-c2cn[nH]c2-c2c[nH]c(C(=O)N[C@H](CO)c3ccc(F)c(Cl)c3)c2)cc1Cl [II-77] | < 1 µM | 
CC(C(=O)N(C)C)N(C)Cc1ccc(-c2cn[nH]c2-c2c[nH]c(C(=O)N[C@H](CO)c3ccc(F)c(Cl)c3)c2)cc1C(F)(F)F (stereo partly drawn) [II-61] | < 1 µM | 
CCNC(=O)CN(CC(=O)NCC)Cc1ccc(-c2cn[nH]c2-c2c[nH]c(C(=O)N[C@H](CO)c3ccc(F)c(Cl)c3)c2)cc1Cl [II-85] | < 1 µM | 
CCN(CC)CC(=O)NCc1ccc(-c2cn[nH]c2-c2c[nH]c(C(=O)N[C@H](CO)c3ccc(F)c(Cl)c3)c2)cc1Cl [II-38] | < 1 µM | 
CC(C(=O)O)N(C)Cc1ccc(-c2cn[nH]c2-c2c[nH]c(C(=O)N[C@H](CO)c3ccc(F)c(Cl)c3)c2)cc1C(F)(F)F (stereo partly drawn) [II-58] | < 1 µM | 
O=C(N[C@H](CO)c1ccc(F)c(Cl)c1)c1cc(-c2[nH]ncc2-c2ccc(CN(CCCl)CCCl)c(Cl)c2)c[nH]1 [II-36] |  | < 1 µM
CC(=O)N[C@@H](C)C(=O)NCc1ccc(-c2cn[nH]c2-c2c[nH]c(C(=O)NC(CO)c3ccc(F)c(Cl)c3)c2)cc1Cl (stereo partly drawn) [II-10] | < 1 µM | 
C[S+]([O-])CC(=O)NCc1ccc(-c2cn[nH]c2-c2c[nH]c(C(=O)NC(CO)c3ccc(F)c(Cl)c3)c2)cc1Cl (stereo not drawn) [II-6] | < 1 µM | 
CC(=O)N[C@H](C)C(=O)NCc1ccc(-c2cn[nH]c2-c2c[nH]c(C(=O)NC(CO)c3ccc(F)c(Cl)c3)c2)cc1Cl (stereo partly drawn) [II-11] | < 1 µM | 
N#CCNCc1ccc(-c2cn[nH]c2-c2c[nH]c(C(=O)N[C@H](CO)c3ccc(F)c(Cl)c3)c2)cc1Cl [II-33] | < 1 µM | 
O=C(CCCO)NCc1ccc(-c2c[nH]nc2-c2c[nH]c(C(=O)NC(CO)c3ccc(F)c(Cl)c3)c2)cc1Cl (stereo not drawn) [II-8, 4-(4-{3-Chloro-4-[(4-hydroxy-butyrylamino)-methyl]-phenyl}-1H-pyrazol-3-yl)-1H-pyrrole-2-carboxylic acid [1-(3-chloro-4-fluoro-phenyl)-2-hydroxy-ethyl]-amide] | < 1 µM | 
CCCCNCc1ccc(-c2cn[nH]c2-c2c[nH]c(C(=O)N[C@H](CO)c3ccc(F)c(Cl)c3)c2)cc1Cl [II-22] | < 1 µM | 
CCOC(=O)NCc1ccc(-c2cn[nH]c2-c2c[nH]c(C(=O)N[C@H](CO)c3ccc(F)c(Cl)c3)c2)cc1Cl [II-78] | < 1 µM | 
CS(=O)(=O)CC(=O)NCc1ccc(-c2cn[nH]c2-c2c[nH]c(C(=O)N[C@H](CO)c3ccccc3)c2)cc1Cl [II-1] | < 1 µM | 
CCOC(=O)C(C)NCc1ccc(-c2cn[nH]c2-c2c[nH]c(C(=O)N[C@H](CO)c3ccc(F)c(Cl)c3)c2)cc1C(F)(F)F (stereo partly drawn) [II-62] | < 1 µM | 

Second part, led by results:

Ki [1] | Compound | Ki
< 1 µM | O=C(N[C@H](CO)c1ccc(F)c(Cl)c1)c1cc(-c2[nH]ncc2-c2ccc(CNCCO)c(Cl)c2)c[nH]1 [II-30] | 
< 1 µM | CC(C)(C)OC(=O)N[C@@H](CO)C(=O)NCc1ccc(-c2cn[nH]c2-c2c[nH]c(C(=O)NC(CO)c3ccc(F)c(Cl)c3)c2)cc1Cl (stereo partly drawn) [II-14] | 
< 1 µM | CCOC(=O)CNCc1ccc(-c2c[nH]nc2-c2c[nH]c(C(=O)N[C@H](CO)c3ccc(F)c(Cl)c3)c2)cc1Cl [II-29] | 
< 1 µM | CCOC(=O)C(C)NCc1ccc(-c2cn[nH]c2-c2c[nH]c(C(=O)N[C@H](CO)c3ccc(F)c(Cl)c3)c2)cc1Cl (stereo partly drawn) [II-55] | 
< 1 µM | CNC(=O)C(C)NCc1ccc(-c2cn[nH]c2-c2c[nH]c(C(=O)N[C@H](CO)c3ccc(F)c(Cl)c3)c2)cc1C(F)(F)F (stereo partly drawn) [II-65] | 
< 1 µM | CCOC(=O)C(C)N(C)Cc1ccc(-c2cn[nH]c2-c2c[nH]c(C(=O)N[C@H](CO)c3ccc(F)c(Cl)c3)c2)cc1Cl (stereo partly drawn) [II-63] | 
< 1 µM | N[C@H](CO)C(=O)NCc1ccc(-c2cn[nH]c2-c2c[nH]c(C(=O)NC(CO)c3ccc(F)c(Cl)c3)c2)cc1Cl (stereo partly drawn) [II-18] | 
< 1 µM | CC(NCc1ccc(-c2cn[nH]c2-c2c[nH]c(C(=O)N[C@H](CO)c3ccc(F)c(Cl)c3)c2)cc1Cl)C(=O)N(C)C (stereo partly drawn) [II-66] | 
